Results: ChEMBL document CHEMBL3507680, “University of Dundee, Gates Library screen for HepG2 cell viability”

Experiment: Human HepG2 cell viability assay in 384 well format
Format: toxicity, cell-based
Set-up: dose 125 nL, time 70.5 hour; cytotoxicity at 70.5 h: concentration not given beside the values
Settings: HepG2 cells, read-out: Inhibition

SMILES	cytotoxicity at 70.5 h [%]
O=C(c1n[nH]cc1Cl)N1CCOC(Cc2cccc(C(F)(F)F)c2)C1 (stereo not given)	-4.63
CC(C)c1cc(N2CCSCC2)n2nccc2n1	19.1
COc1ccc(CN2CCN(C(=O)N(C)C)[C@@H]3CS(=O)(=O)C[C@@H]32)cc1F	4.21
CCN1CCCC(c2c(-c3ccccc3)ncn2Cc2cccnc2)C1 (stereo not given)	-9.92
COCCN1CCCC(O)(CN2CCCN(c3ncccn3)CC2)C1=O (stereo not given)	2.84
CN(C)CC1(O)CCN(C(=O)c2ccc(-n3cccn3)cc2Cl)C1 (stereo not given)	5.18
O=c1cc(CN2C[C@H]3CC[C@@H]2CN(Cc2ccccc2)C3)[nH]c(=O)[nH]1	2.22
O=C(NC1CCOC1)c1cccc(S(=O)(=O)NCCCc2ncc[nH]2)c1 (stereo not given)	-13.4
COc1coc(CN2CCCC(CCc3ccc(F)c(F)c3)C2)cc1=O (stereo not given)	15.5
Cc1cc(C(F)(F)F)cc(N2CCC3(CCC(=O)N(CCO)C3)CC2)n1	-4.65
Cc1ccc(-c2nnc(CN3CC[C@H](CO)[C@@H](O)C3)o2)n1C	-2.96
CC(Cc1cnccn1)NC(=O)COc1ccc(F)cc1F (stereo not given)	3.61
CCc1cnc(N)nc1NCCn1cc(Cl)cn1	-6.52
COc1cccc(OC2CN(C(=O)Cn3nc4ccccc4n3)C2)c1	-5.28
CN(CCC1CCOCC1)[C@@H]1c2ccccc2C2(CCNCC2)[C@H]1O	-4.06
NC(=O)C1CCN(CC(=O)NCCn2cc(Cl)cn2)CC1	13.2
O=C(c1ccccn1)N1C[C@@H]2CC[C@H](C1)N(C(=O)CCC1CCCC1)C2	-1.69
COc1ccc(OC)c(CNC2CCCc3nc(N(C)C)ncc32)c1 (stereo not given)	-7.31
Nc1cc(C(=O)N2CCC3(CC2)Nc2ccccc2NC3=O)ccn1	19.6
CCOc1ncccc1Cn1cc(-c2ccc(CO)o2)nn1	-15.3
COc1ccc(C(=O)NCC2CCCN(C3CCOCC3)C2)c(O)c1 (stereo not given)	23.3
COc1cccc(CCC2CCCN(Cc3ncc[nH]3)C2)c1 (stereo not given)	29.4
Cc1[nH]c2c(F)cccc2c1CC(=O)N1CCC(NS(C)(=O)=O)CC1	-7.49
CN1CC[C@H]2CN(C(=O)c3ccc4sc5c(c4c3)CCNC5=O)C[C@H]21	-1.19
CCOc1ccccc1OCCN(C)Cc1nccn1C	-5.37
CC(=O)N1CCC(C(=O)NC2CC(C)(C)Oc3cc(C)ccc32)CC1 (stereo not given)	12.8
COCCc1noc(CNC(=O)C2CC(=O)N(C(C)(C)C)C2)n1 (stereo not given)	-7.37

SMILES	cytotoxicity at 70.5 h [%]
Cc1cc(C2CCC2)nc(N(C)CCc2ccccn2)n1	-5.51
O=C1OCCN1CC(=O)N1C[C@H]2CC[C@@H]1CN(Cc1cscn1)C2	27.8
Cc1cc2n(n1)CCN(c1nc(N)nc3c1CCNCC3)C2	-13.6
Cc1ccnc(NCCNC(=O)CCNC(=O)c2ccccc2F)c1	1.01
CCCN(CCc1ccccc1)c1ncnc2oc(C)nc12	-2.57
Cc1cccnc1CN1CCN(C(=O)CCn2ccccc2=O)CC1	0.0273
CNc1nc(C(=O)N2CCCN(c3ccnc(C)c3)CC2)cs1	-5.86
COCCN(Cc1sccc1C)c1nc(C)nc2sccc12	-3.07
COc1nc2c(cc1C(=O)N(C)Cc1noc3c1CCCC3)CCC2	-0.83
CC(C1CCN(Cc2cnn(C)c2C2CC2)CC1)N1CCN(C)CC1 (stereo not given)	-3.33
CNc1cc(C)nc(N2CCN(Cc3ccccc3)CC(O)C2)n1 (stereo not given)	-0.369
c1nc2c(c(NC3COC4(CCCC4)C3)n1)CCNCC2 (stereo not given)	-5.17
CC(C)(N)C(=O)N1CCCC(C(=O)c2ccc(C(C)(C)C)cc2)C1 (stereo not given)	-3.3
Cc1ccc(-c2ncc(C(=O)N3CCCN4CCC[C@H]4C3)c(O)n2)cc1	5.02
COc1ccc(-c2cccc(-c3ccn(CCN(C)C)n3)c2)nn1	-3.58
N[C@H]1CC[C@@H](n2cc(C(=O)NC3COc4ccccc43)nn2)CC1 (stereo not given in full)	-0.524
c1cncc(Cc2nnc3n2CCN(CC2CCOC2)CC3)c1 (stereo not given)	-10.7
COCCN(C)C[C@H]1C[C@@H](CO)CN(C(=O)c2ccn(C)c(=O)c2)C1	-8.04
c1cncc(OCc2nc(C3CC3)nn2-c2ccc3c(c2)OCCO3)c1	14.2
C[C@@H]1CN(C(=O)CCc2nncn2C)CC[C@@]1(O)C1CCC1	-5.47
N#Cc1ccnc(NCc2cc3n(n2)CCCN(C(=O)C2CCC2)C3)c1	1.71
CCOCCC(=O)N1C[C@H]2CC[C@@H]1CN(c1ncccn1)C2	-5.84
CC(C)N1CCN(C(=O)c2csc3nc(-c4ccc(Cl)cc4)cn23)CC1	-16.3
CCN(Cc1ccncc1)Cc1cn(-c2ccccc2)nn1	-10.2
Cc1ccc(Cl)c(CN2CCC(c3nccn3C(C)C)CC2)c1F	-1.48
Cc1ccccc1N1CCCN(CC2(O)CCCNC2)CC1 (stereo not given)	20.3
OCC1COCCN(c2ncccc2C(F)(F)F)C1 (stereo not given)	3.25

SMILES	cytotoxicity at 70.5 h [%]
COc1cccc2c1OCC(C(=O)N1CCC(N3CCSCC3)CC1)C2 (stereo not given)	4.8
O=C(c1ccc2c(c1)CCO2)N1CCN(c2ccc(Cl)cn2)CC1	-0.811
Cc1cc(-c2cccc(-c3ccn(CCCO)n3)c2)nc(N(C)C)n1	-5.08
CN1CCN([C@H]2CCN(C(=O)c3cc(Cl)cn3C)C[C@H]2CCCO)CC1	-14.3
Cc1cccc(-c2nccn2C2CC(=O)N(C(C)C)C2)n1 (stereo not given)	0.181
CCN1CCCC1CN(Cc1ccoc1)CC1CCN(CCOC)CC1 (stereo not given)	-3.24
CN(CCO)Cc1nnc(C2CCN(C(=O)c3ccccc3)CC2)n1C	0.129
Cc1cccc(CN2CCN(C(=O)[C@@H]3CSCN3C)CC2)c1	-13.3
CC(C)CCC(=O)N1CCCC2(CCN(Cc3ccccc3C#N)C2)C1 (stereo not given)	-5.13
O=S1(=O)COCCN1Cc1ccc(F)cc1Cl	-9.29
Cc1cccc(C)c1-c1cc(NCCO)nc2[nH]ccc12	-11.1
O=C(N[C@@H]1CCN(c2nc3ccccc3o2)C[C@H]1O)c1cnccn1	-9.1
Cc1nnc(CN2CCN(C)C3(CCNC(=O)CC3)C2)s1 (stereo not given)	2.04
Cc1cc(=O)[nH]c(NCCNC(=O)CN2CCCCCC2)n1	15.9
O=C(NC1CC1)C1CN(c2nc3ccccc3s2)CCN1 (stereo not given)	-7.94
CC(C)CCn1c(=O)n(CCn2cccc2)c2cc(C(=O)O)cnc21	-7.02
COCc1cc(N(C)CCc2c(C)n[nH]c2C)ncn1	5.69
COc1ccnc(CNc2nc(C)nc(C)c2C)c1	3
CSCC[C@H](N)C(=O)N1CC(Oc2ccccc2C)C1	-3.44
CCN1CC(C(=O)NCCn2cccc2)CC1=O (stereo not given)	-4.38
Cc1cnn(C(C)C2CC2)c1NC(=O)c1ccc(Cn2cnnn2)cc1 (stereo not given)	-10.2
O=c1cnc2ccccc2n1CCCn1ccnc1	-16.2
O=C(COc1cccnc1)NCc1nncn1C1CCCCC1	-5.77
COCCn1ccnc1C1CCCN(C(=O)c2ccncc2F)C1 (stereo not given)	11
Cc1cnn(C2(C(=O)O)CCN(c3ccncc3F)CC2)c1	-5.87
CCn1ncc(-c2nc3c[nH]n(CC)c-3n2)c1C	0.803
